Among the data in the NIST ThermoML archive (doi:10.1016/j.jct.2012.05.010) are refractive index values, retold here.

± gives the expanded uncertainty stated by the source.

The series is described as follows: refractive index (Na D-line) (dimensionless). Conditions: 293.1 K; 101.33 kPa; Liquid; Standard Abbe refractometry.
For the molecule `CCCCCCCCCCCCCC` [tetradecane], the refractive index is listed as 1.4289 ± 0.0004. `CCCCCCCCCCCC` [dodecane]: the refractive index stood at 1.422 ± 0.0004. In the case of `CCCc1ccccc1` [propylbenzene], the refractive index is 1.4915 ± 0.0004. For `CCCCn1cc[n+](C)c1.F[P-](F)(F)(F)(F)F` [1-butyl-3-methylimidazolium hexafluorophosphate], the refractive index was determined as 1.3803 ± 0.0005.
